# Source: patent US4877796A (priority 1986, dated 1989)
# Like-named read-outs stand apart in the source and are kept apart here.
# Test system: disturbances of the cardiac rhythm (aconitine) in the rat
# Type: in vivo
# Conditions: for Precentage of the protraction of time: aconitine perfusion five minutes after administration, compared with controls
structure (smiles),measurement,setting,value
"CN1CCC[C@H]2CCC[C@@H](N(C)C(=O)Cc3ccc(Cl)c(Cl)c3)[C@@H]21 [Example 2, [4aRS(4aα,8α,8aα)](+) N-(decahydro-1-methyl-8-quinolinyl)-3,4-dichloro-N-methyl-benzene-acetamide]",Precentage of the protraction of time,2.5 mg/kg intravenously,16%
same,Precentage of the protraction of time,5 mg/kg intravenously,28%
same,Precentage of the protraction of time,10 mg/kg intravenously,43%
same,antiarrythmic properties (in words),"intravenously, aconitine model",good antiarrythmic properties
